{"source": "patent US6355799B1", "about": "“Substituted benzene compounds, process for their preparation, and herbicidal and defoliant compositions containing them” (ISK Americas Incorporated, priority 1997, dated 2002)", "type_in_all_cases": "in vivo", "key": {"[1]": {"tested_on": "upland rice (Oryza sp., var. Tebonnet, RICE)", "assay": "Post-emerge test, crop safety", "details": "phytotoxicity rating 0-100 (0 no damage, 100 complete death), 14 days after application", "procedure,_shortened": "(§1)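 Herbicidal damage is scored 0 (none) to 100 (complete plant death) two weeks after a simulated field spray. Rates span 15–1000 g ai/ha, delivered in acetone at 187 l/ha. For post-emergence treatments, plants have 2–3 leaves and the spray carries 0.25% v/v non-ionic surfactant.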"}, "[2]": {"tested_on": "field corn (Zea mays L., var. Dekalb 535, CORN)", "assay": "Post-emerge test, crop safety", "details": "phytotoxicity rating 0-100 (0 no damage, 100 complete death), 14 days after application", "procedure,_shortened": "as §1"}, "[3]": {"tested_on": "lambsquarters (Chenopodium album, CHEAL)", "assay": "Post-emerge test, greenhouse herbicide activity screening", "details": "phytotoxicity rating 0-100 (0 no damage, 100 complete death), 14 days after application", "procedure,_shortened": "(§2)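 Sandy loam pots; pre-emerge: sown 1 d pre-spray, surface-watered after, then bottom-watered. Post-emerge: sown 8–21 d before, 2–3 leaf stage, + 0.25% v/v NIS, bottom-watered. Acetone, 187 l/ha track spray, 15–1000 g ai/ha. 0–100 injury score, day 14.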"}, "[4]": {"tested_on": "green foxtail (Setaria viridis, SETVI)", "assay": "Post-emerge test, greenhouse herbicide activity screening", "details": "phytotoxicity rating 0-100 (0 no damage, 100 complete death), 14 days after application", "procedure,_shortened": "as §2"}, "[5]": {"tested_on": "redroot pigweed (Amaranthus retroflexus, AMARE)", "assay": "Post-emerge test, greenhouse herbicide activity screening", "details": "phytotoxicity rating 0-100 (0 no damage, 100 complete death), 14 days after application", "procedure,_shortened": "as §2"}, "[6]": {"tested_on": "common ragweed (Ambrosia artemisizfolia L., AMBEL)", "assay": "Post-emerge test, greenhouse herbicide activity screening", "details": "phytotoxicity rating 0-100 (0 no damage, 100 complete death), 14 days after application", "procedure,_shortened": "as §2"}, "[7]": {"tested_on": "barnyardgrass (Echinochloa crus-galli, ECHCG)", "assay": "Post-emerge test, greenhouse herbicide activity screening", "details": "phytotoxicity rating 0-100 (0 no damage, 100 complete death), 14 days after application", "procedure,_shortened": "as §2"}, "[8]": {"tested_on": "large crabgrass (Digitaria sanguinalis, DIGSA)", "assay": "Post-emerge test, greenhouse herbicide activity screening", "details": "phytotoxicity rating 0-100 (0 no damage, 100 complete death), 14 days after application", "procedure,_shortened": "as §2"}, "[9]": {"tested_on": "velvetleaf (Abutilon theophrasti, ABUTH)", "assay": "Post-emerge test, greenhouse herbicide activity screening", "details": "phytotoxicity rating 0-100 (0 no damage, 100 complete death), 14 days after application", "procedure,_shortened": "as §2"}, "[10]": {"tested_on": "ivyleaf morningglory (Ipomoea hederacea, IPOHE)", "assay": "Post-emerge test, greenhouse herbicide activity screening", "details": "phytotoxicity rating 0-100 (0 no damage, 100 complete death), 14 days after application", "procedure,_shortened": "as §2"}, "[11]": {"tested_on": "johnsongrass (Sorghum halepense, SORHA)", "assay": "Post-emerge test, greenhouse herbicide activity screening", "details": "phytotoxicity rating 0-100 (0 no damage, 100 complete death), 14 days after application", "procedure,_shortened": "as §2"}, "[12]": {"tested_on": "sicklepod (Cassia obtusifolia, CASOB)", "assay": "Post-emerge test, greenhouse herbicide activity screening", "details": "phytotoxicity rating 0-100 (0 no damage, 100 complete death), 14 days after application", "procedure,_shortened": "as §2"}, "[13]": {"tested_on": "lambsquarters (Chenopodium album, CHEAL)", "assay": "Pre-emerge test, greenhouse herbicide activity screening", "details": "pre-emerge, rated 14 days after application, 0 = no damage, 100 = complete death", "procedure,_shortened": "as §1"}, "[14]": {"tested_on": "green foxtail (Setaria viridis, SETVI)", "assay": "Pre-emerge test, greenhouse herbicide activity screening", "details": "pre-emerge, rated 14 days after application, 0 = no damage, 100 = complete death", "procedure,_shortened": "as §1"}, "[15]": {"tested_on": "common ragweed (Ambrosia artemisizfolia L., AMBEL)", "assay": "Pre-emerge test, greenhouse herbicide activity screening", "details": "pre-emerge, rated 14 days after application, 0 = no damage, 100 = complete death", "procedure,_shortened": "as §1"}, "[16]": {"tested_on": "barnyardgrass (Echinochloa crus-galli, ECHCG)", "assay": "Pre-emerge test, greenhouse herbicide activity screening", "details": "pre-emerge, rated 14 days after application, 0 = no damage, 100 = complete death", "procedure,_shortened": "as §1"}, "[17]": {"tested_on": "large crabgrass (Digitaria sanguinalis, DIGSA)", "assay": "Pre-emerge test, greenhouse herbicide activity screening", "details": "pre-emerge, rated 14 days after application, 0 = no damage, 100 = complete death", "procedure,_shortened": "as §1"}, "[18]": {"tested_on": "velvetleaf (Abutilon theophrasti, ABUTH)", "assay": "Pre-emerge test, greenhouse herbicide activity screening", "details": "pre-emerge, rated 14 days after application, 0 = no damage, 100 = complete death", "procedure,_shortened": "as §1"}, "[19]": {"tested_on": "ivyleaf morningglory (Ipomoea hederacea, IPOHE)", "assay": "Pre-emerge test, greenhouse herbicide activity screening", "details": "pre-emerge, rated 14 days after application, 0 = no damage, 100 = complete death", "procedure,_shortened": "as §1"}, "[20]": {"tested_on": "johnsongrass (Sorghum halepense, SORHA)", "assay": "Pre-emerge test, greenhouse herbicide activity screening", "details": "pre-emerge, rated 14 days after application, 0 = no damage, 100 = complete death", "procedure,_shortened": "as §1"}, "[21]": {"tested_on": "sicklepod (Cassia obtusifolia, CASOB)", "assay": "Pre-emerge test, greenhouse herbicide activity screening", "details": "pre-emerge, rated 14 days after application, 0 = no damage, 100 = complete death", "procedure,_shortened": "as §1"}, "[22]": {"tested_on": "upland rice (Oryza sp., var. Tebonnet, RICE)", "assay": "Pre-emerge test, crop safety", "details": "pre-emerge, rated 14 days after application, 0 = no damage, 100 = complete death", "procedure,_shortened": "(§3)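 Compounds in acetone were track-sprayed at 15-1000 g ai/ha (187 l/ha) on sandy loam pots: pre-emerge one day after seeding, post-emerge at 2-3 leaf stage with 0.25% v/v non-ionic surfactant. Phytotoxicity was rated 14 days later on a 0 (no damage) to 100 (complete death) scale.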"}, "[23]": {"tested_on": "field corn (Zea mays L., var. Dekalb 535, CORN)", "assay": "Pre-emerge test, crop safety", "details": "pre-emerge, rated 14 days after application, 0 = no damage, 100 = complete death", "procedure,_shortened": "as §3"}, "[24]": {"tested_on": "redroot pigweed (Amaranthus retroflexus, AMARE)", "assay": "Pre-emerge test, greenhouse herbicide activity screening", "details": "pre-emerge, rated 14 days after application, 0 = no damage, 100 = complete death", "procedure,_shortened": "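Compounds in acetone were track-sprayed at 187 l/ha, 15–1000 g ai/ha, onto sandy loam pots. Pre-emerge seeds were sown one day before spraying, with surface watering afterwards. Post-emerge plants were at the 2–3 leaf stage and sprayed with 0.25% v/v non-ionic surfactant. Injury was rated 0–100 at 14 days.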"}}}
{"compound": "COc1c(Cl)cc(F)c(-n2c(=O)c(NC(=O)C(F)(F)F)c(C(F)(F)F)n(C)c2=O)c1NC(=O)C(F)(F)F", "note": "[2-12]", "values": [{"measurement": "Post-emerge Herbicidal Activity RICE (crop damage)", "setting": "[1]; 63 g ai/ha", "value": 0}, {"measurement": "Post-emerge Herbicidal Activity RICE (crop damage)", "setting": "[1]; 250 g ai/ha", "value": 0}, {"measurement": "Post-emerge Herbicidal Activity CORN (crop damage)", "setting": "[2]; 63 g ai/ha", "value": 0}, {"measurement": "Post-emerge Herbicidal Activity CORN (crop damage)", "setting": "[2]; 250 g ai/ha", "value": 0}, {"measurement": "Post-emerge Herbicidal Activity CHEAL", "setting": "[3]; 63 g ai/ha", "value": 0}, {"measurement": "Post-emerge Herbicidal Activity CHEAL", "setting": "[3]; 250 g ai/ha", "value": 40}, {"measurement": "Post-emerge Herbicidal Activity SETVI", "setting": "[4]; 63 g ai/ha", "value": 0}, {"measurement": "Post-emerge Herbicidal Activity SETVI", "setting": "[4]; 250 g ai/ha", "value": 0}, {"measurement": "Post-emerge Herbicidal Activity AMARE", "setting": "[5]; 63 g ai/ha", "value": 0}, {"measurement": "Post-emerge Herbicidal Activity AMARE", "setting": "[5]; 250 g ai/ha", "value": 10}, {"measurement": "Post-emerge Herbicidal Activity AMBEL", "setting": "[6]; 63 g ai/ha", "value": 0}, {"measurement": "Post-emerge Herbicidal Activity AMBEL", "setting": "[6]; 250 g ai/ha", "value": 10}, {"measurement": "Post-emerge Herbicidal Activity ECHCG", "setting": "[7]; 63 g ai/ha", "value": 0}, {"measurement": "Post-emerge Herbicidal Activity ECHCG", "setting": "[7]; 250 g ai/ha", "value": 0}, {"measurement": "Post-emerge Herbicidal Activity DIGSA", "setting": "[8]; 63 g ai/ha", "value": 0}, {"measurement": "Post-emerge Herbicidal Activity DIGSA", "setting": "[8]; 250 g ai/ha", "value": 0}, {"measurement": "Post-emerge Herbicidal Activity ABUTH", "setting": "[9]; 63 g ai/ha", "value": 20}, {"measurement": "Post-emerge Herbicidal Activity ABUTH", "setting": "[9]; 250 g ai/ha", "value": 65}, {"measurement": "Post-emerge Herbicidal Activity IPOHE", "setting": "[10]; 63 g ai/ha", "value": 0}, {"measurement": "Post-emerge Herbicidal Activity IPOHE", "setting": "[10]; 250 g ai/ha", "value": 50}, {"measurement": "Post-emerge Herbicidal Activity SORHA", "setting": "[11]; 63 g ai/ha", "value": 0}, {"measurement": "Post-emerge Herbicidal Activity SORHA", "setting": "[11]; 250 g ai/ha", "value": 0}, {"measurement": "Post-emerge Herbicidal Activity CASOB", "setting": "[12]; 63 g ai/ha", "value": 0}, {"measurement": "Post-emerge Herbicidal Activity CASOB", "setting": "[12]; 250 g ai/ha", "value": 0}, {"measurement": "Pre-emerge Herbicidal Activity CHEAL (phytotoxicity rating, scale 0-100)", "setting": "[13]; 63 g ai/ha", "value": 0}, {"measurement": "Pre-emerge Herbicidal Activity CHEAL (phytotoxicity rating, scale 0-100)", "setting": "[13]; 250 g ai/ha", "value": 30}, {"measurement": "Pre-emerge Herbicidal Activity SETVI (phytotoxicity rating, scale 0-100)", "setting": "[14]; 63 g ai/ha", "value": 0}, {"measurement": "Pre-emerge Herbicidal Activity SETVI (phytotoxicity rating, scale 0-100)", "setting": "[14]; 250 g ai/ha", "value": 0}, {"measurement": "Pre-emerge Herbicidal Activity AMBEL (phytotoxicity rating, scale 0-100)", "setting": "[15]; 63 g ai/ha", "value": 0}, {"measurement": "Pre-emerge Herbicidal Activity AMBEL (phytotoxicity rating, scale 0-100)", "setting": "[15]; 250 g ai/ha", "value": 0}, {"measurement": "Pre-emerge Herbicidal Activity ECHCG (phytotoxicity rating, scale 0-100)", "setting": "[16]; 63 g ai/ha", "value": 0}, {"measurement": "Pre-emerge Herbicidal Activity ECHCG (phytotoxicity rating, scale 0-100)", "setting": "[16]; 250 g ai/ha", "value": 0}, {"measurement": "Pre-emerge Herbicidal Activity DIGSA (phytotoxicity rating, scale 0-100)", "setting": "[17]; 63 g ai/ha", "value": 0}, {"measurement": "Pre-emerge Herbicidal Activity DIGSA (phytotoxicity rating, scale 0-100)", "setting": "[17]; 250 g ai/ha", "value": 0}, {"measurement": "Pre-emerge Herbicidal Activity ABUTH (phytotoxicity rating, scale 0-100)", "setting": "[18]; 63 g ai/ha", "value": 50}, {"measurement": "Pre-emerge Herbicidal Activity ABUTH (phytotoxicity rating, scale 0-100)", "setting": "[18]; 250 g ai/ha", "value": 70}, {"measurement": "Pre-emerge Herbicidal Activity IPOHE (phytotoxicity rating, scale 0-100)", "setting": "[19]; 63 g ai/ha", "value": 40}, {"measurement": "Pre-emerge Herbicidal Activity IPOHE (phytotoxicity rating, scale 0-100)", "setting": "[19]; 250 g ai/ha", "value": 70}, {"measurement": "Pre-emerge Herbicidal Activity SORHA (phytotoxicity rating, scale 0-100)", "setting": "[20]; 63 g ai/ha", "value": 0}, {"measurement": "Pre-emerge Herbicidal Activity SORHA (phytotoxicity rating, scale 0-100)", "setting": "[20]; 250 g ai/ha", "value": 0}, {"measurement": "Pre-emerge Herbicidal Activity CASOB (phytotoxicity rating, scale 0-100)", "setting": "[21]; 63 g ai/ha", "value": 30}, {"measurement": "Pre-emerge Herbicidal Activity CASOB (phytotoxicity rating, scale 0-100)", "setting": "[21]; 250 g ai/ha", "value": 40}, {"measurement": "Pre-emerge crop damage RICE (phytotoxicity rating, scale 0-100)", "setting": "[22]; 63 g ai/ha", "value": 0}, {"measurement": "Pre-emerge crop damage RICE (phytotoxicity rating, scale 0-100)", "setting": "[22]; 250 g ai/ha", "value": 0}, {"measurement": "Pre-emerge crop damage CORN (phytotoxicity rating, scale 0-100)", "setting": "[23]; 63 g ai/ha", "value": 0}, {"measurement": "Pre-emerge crop damage CORN (phytotoxicity rating, scale 0-100)", "setting": "[23]; 250 g ai/ha", "value": 0}, {"measurement": "Pre-emerge Herbicidal Activity AMARE (phytotoxicity rating, scale 0-100)", "setting": "[24]; 63 g ai/ha", "value": 30}, {"measurement": "Pre-emerge Herbicidal Activity AMARE (phytotoxicity rating, scale 0-100)", "setting": "[24]; 250 g ai/ha", "value": 100}]}
